Measured values: PubChem BioAssay AID720495 (Broad Institute, 2013)
Records with an inconclusive call do not appear. Active and inactive are the calls of the source. How the calls were made is not given here.

These compounds were tested against Protein AF-9 (Homo sapiens) (UniProt P42568) (assay: AF9 binding to AF4 blockers, potency – biochemical, cherry-picked samples, plate reader, dose response (AID 720495)). Details: biochemical protein-protein interaction assay.
Sequence of Protein AF-9 (Homo sapiens) (P42568 whole entry, looked up): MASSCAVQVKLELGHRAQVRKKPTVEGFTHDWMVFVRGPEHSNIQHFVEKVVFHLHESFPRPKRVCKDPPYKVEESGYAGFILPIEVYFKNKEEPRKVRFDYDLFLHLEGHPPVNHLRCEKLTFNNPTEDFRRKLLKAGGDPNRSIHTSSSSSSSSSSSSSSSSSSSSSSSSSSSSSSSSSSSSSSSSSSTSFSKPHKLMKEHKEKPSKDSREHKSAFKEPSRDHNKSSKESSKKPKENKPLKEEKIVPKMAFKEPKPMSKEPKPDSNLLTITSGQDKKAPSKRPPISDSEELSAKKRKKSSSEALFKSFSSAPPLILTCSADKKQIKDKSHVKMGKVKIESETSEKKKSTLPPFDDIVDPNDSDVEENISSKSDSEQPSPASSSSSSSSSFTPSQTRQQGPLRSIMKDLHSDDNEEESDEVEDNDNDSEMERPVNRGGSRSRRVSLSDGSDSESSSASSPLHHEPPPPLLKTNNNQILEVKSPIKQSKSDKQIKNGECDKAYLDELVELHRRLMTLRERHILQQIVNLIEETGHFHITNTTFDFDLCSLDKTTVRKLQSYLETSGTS
For `N=C(N)c1ccc(/C=C/c2ccc(C(=N)N)cc2O)cc1`, the AC50 was 3.33 µM. For `COc1ccc(S(=O)(=O)/N=C2\C=C(Nc3ccc(O)cc3)C(=O)c3ccccc32)cc1`, the AC50 was 0.724 µM. With `COc1cc(OC)c2c(-c3ccccc3)cc(=O)oc2c1C(CCN1CCCC(C)C1)c1ccc(N(C)C)cc1` (stereo unspecified) the AC50 was 0.943 µM. In the case of `CN(C(=O)c1ccc(NC(=O)Cc2ccc(NC(=O)C3CCN(C(=O)c4ccccc4)CC3)cc2)cc1)C1CC1`, the AC50 is reported as 0.233 µM. Work on `CCn1c(-c2ccccc2)csc1=Nc1ccc(O)cc1` yielded an AC50 of 6.97 µM. `CCN(CC)c1ccc(CNc2ccc3c(c2)ncn3C(C)(C)C)cc1` gave an AC50 of 3.48 µM. In the case of `CN(C)c1cc2c3ccccc3n(C)c2cc1N`, the AC50 is reported as 1.08 µM. `CCCC(=O)NC(c1ccc(N(C)C)cc1)c1ccc2cccnc2c1O` (stereo unspecified) showed an AC50 of 1.04 µM. `CC1NC(=O)NC1CCCCCC(=O)Nc1ccc(F)cc1` (stereo unspecified) gave an AC50 of less than 0.08 µM. With `Oc1ccc(O)c(C=NNC(=S)NC2CC3CC2C2C=CCC32)c1` (stereo unspecified) the AC50 was 8.16 µM. With `COc1ccc2c(c1)c(=Cc1ccc(N(C)C)cc1)c1cc(-c3ccccc3)[n+](C)n12` the AC50 was 2.49 µM. For `CCC1CN2CCc3cc(OC)c(OC)cc3C2CC1CC1NCCc2c1[nH]c1ccc(O)cc21` (stereo unspecified), the AC50 was 7.26 µM. `C#CCOCCOCCOCCNc1nc(N2CCN(C(=O)[C@H](CCCCN)n3cc(CCCC)nn3)CC2)nc(N2CCN(C(=O)[C@H](CCCCN)n3cc(CCCC)nn3)CC2)n1` gave an AC50 of 11.3 µM. `COc1ccc(C(CCNCc2ccc(N(C)C)cc2)C(C)C)cc1` (stereo unspecified) showed an AC50 of 2.88 µM. In the case of `C[C@H](CO)N1C[C@H](C)[C@@H](CN(C)Cc2ccc(Cl)c(Cl)c2)Oc2ccc(N(C)C)cc2CC1=O`, the AC50 is reported as 10.8 µM. In the case of `CC1C(=NO)C(C)C(c2ccc(N(C)C)cc2)NC1c1ccc(N(C)C)cc1` (stereo unspecified), the AC50 is reported as 10.4 µM. In the case of `Cc1cc(N=Nc2ccc3ccccc3c2)ccc1O`, the AC50 is reported as 9.43 µM. For `CC1NC(=O)NC1CCCCCC(=O)Nc1ccc(F)c(Cl)c1` (stereo unspecified), the AC50 was less than 0.08 µM. For `COc1cccc(CNCCc2c[nH]c3ccccc23)c1OCc1ccccc1`, the AC50 was 11.5 µM. In the case of `CCN(CC)CCC(c1ccc(N(C)C)cc1)c1c(OC)cc(OC)c2c(-c3ccccc3)cc(=O)oc12` (stereo unspecified), the AC50 is reported as 3.97 µM. With `CN(C)CCNc1ncnc2c1sc1nc(-c3ccccc3)c3c(c12)CCCC3` the AC50 was 6.89 µM. `CN1CCN(C(c2ccc(C(F)(F)F)cc2)c2ccc3cccnc3c2O)CC1` (stereo unspecified) was tested, and the AC50 was 0.857 µM. `CCN(CC)CCOc1ccc2c(c1)C(=NNC(=O)c1ccccn1)c1cc(OCCN(CC)CC)ccc1-2` gave an AC50 of 3.66 µM. In the case of `CN1CCN(/N=C/c2ccc(-c3ccc([N+](=O)[O-])cc3Cl)o2)CC1`, the AC50 is reported as 9.35 µM. `CCOc1ccc(NCc2cccn2-c2nnc(N3CCC(C(=O)NCCCN4CCCCC4)CC3)s2)cc1` showed an AC50 of 5.94 µM. Work on `CCOc1ccc(NCc2cccn2-c2nnc(N3CCC(C(=O)NCCCN4C(C)CCCC4C)CC3)s2)cc1` (stereo unspecified) yielded an AC50 of 5.36 µM. For `O=C1C(NS(=O)(=O)c2ccc(Cl)cc2)=C(N2CCCCC2)C(=O)c2ccccc21`, the AC50 was less than 0.08 µM. In the case of `C[n+]1c(-c2ccc(C=NNC(=O)c3ccc(C(=O)NN=Cc4ccc(-c5cn6ccccc6[n+]5C)cc4)cc3)cc2)cn2ccccc21`, the AC50 is reported as 0.804 µM. In the case of `COc1ccc(OC)c(Nc2c3ccccc3nc3ccccc23)c1`, the AC50 is reported as 7.11 µM. Work on `CC(=NNC(=S)N1CCN(C2CCCCCC2)CC1)c1ccccn1` yielded an AC50 of 0.687 µM. Compound `CN(C)c1ccc(/C=C2/C[N+](C)(C)C/C(=C/c3ccc(N(C)C)cc3)C2=O)cc1` has an AC50 of 2.81 µM. `CN(C)CC/C=C1/c2ccc(F)cc2Sc2ccc(Cl)cc21` was tested, and the AC50 was 5.01 µM. Work on `CN1CCN(C(c2ccccn2)c2cc(Cl)c3cccnc3c2O)CC1` (stereo unspecified) yielded an AC50 of 2.05 µM. `CN(C)c1ccc(C=c2c3cc(O)ccc3n3c2cc(-c2ccccc2)[n+]3C)cc1` gave an AC50 of 0.975 µM. `c1ccc(N=Nc2ccc3cccccc2-3)cc1` showed an AC50 of 0.232 µM. `Cc1[nH]c2ccccc2c1C(C#N)(C#N)C1C(=O)c2ccccc2C1=O` showed an AC50 of 0.981 µM. Compound `CCN(CC)c1ccc(N=C2C(=O)Nc3ccccc32)cc1` has an AC50 of 2.77 µM. For `C#CCOCCOCCOCCNc1nc(N2CCN(C(=O)[C@H]([C@@H](C)CC)n3cc(CCCN=C(N)N)nn3)CC2)nc(N2CCN(C(=O)[C@H](CCCCN)n3cc(CCCC)nn3)CC2)n1`, the AC50 was 8.98 µM. In the case of `CN(C)CC/C=C1\c2ccc(F)cc2Sc2cc(F)c(Cl)cc21`, the AC50 is reported as 9.52 µM. For `COc1ccccc1N(C(C)=O)C1=C(Cl)C(=O)c2ccccc2C1=O`, the AC50 was 7.96 µM. With `COC1=C(Nc2ccccc2OC)C(=O)c2ccccc2C1=O` the AC50 was 3.9 µM. `CCN(CC)c1ccc(C(=C2C=CC(=[N+](CC)CC)C=C2)c2ccccc2)cc1` showed an AC50 of 0.685 µM. Compound `COc1ccc2nc3ccccc3nc2c1N` has an AC50 of 3.44 µM. Work on `O=C1C(Cl)=CC(=Nc2ccc(O)cc2)C=C1Cl` yielded an AC50 of 11.4 µM. With `CN1\C(=C/C=C/C=C/C=[N+](C)C)C(C)(C)c2ccccc21` the AC50 was 9.97 µM. For `CCN(Cc1ccccc1)c1ccc(/C=N/N=C(N)N)cc1`, the AC50 was 4.43 µM. In the case of `CC(=O)c1cccc2c(O)c(C3=Nc4ccccc4C3=O)[nH]c12`, the AC50 is reported as 3.11 µM. For `COc1cc2c(c(OC)c1OC)-c1ccc(O)c(=O)cc1[C@@H](N)CC2`, the AC50 was 2.3 µM. Compound `COc1ccc(NCc2ccc(OC)c(Cn3ccnc3)c2)c(OC)c1` has an AC50 of 11.2 µM. `CC1(C)CC(Nc2ccc(Nc3ccccc3)cc2)CC(C)(C)N1` gave an AC50 of 6.78 µM. In the case of `O=C(O)CCCNc1cc(N2CCN(C(=O)c3ccco3)CC2)c2noc3c2c1C(=O)c1ccccc1-3`, the AC50 is reported as 10.6 µM.

Same assay, conditions: biochemical protein-protein interaction assay, at 10 µM (top of the series)
In the case of `Cn1cc(CN2CCC(C(=O)NC(c3ccc(F)cc3)c3ccc4ccccc4n3)CC2)c2ccccc21` (stereo unspecified), the “activity change, negative = inhibition” value is reported as “inactive”. `COc1ccc2sc(N(CCCN(C)C)C(=O)c3ccc(S(=O)(=O)N(C)C4CCCCC4)cc3)nc2c1` was tested, and the “activity change, negative = inhibition” value was “inactive”. In the case of `COc1ccc(C)cc1Nc1n[n+](-c2ccccc2)c(-c2c(Cl)cccc2Cl)s1`, the “activity change, negative = inhibition” value is reported as “inactive”. `O=C(Nc1cccc(CNCCc2c[nH]c3ccccc23)c1)c1ccccc1Cl` was tested, and the “activity change, negative = inhibition” value was “inactive”. For `O=C(N/N=C/c1cc(Cl)cc([N+](=O)[O-])c1O)c1cccc(S(=O)(=O)N2CCOCC2)c1`, the “activity change, negative = inhibition” value was “inactive”. With `C[C@@H]1CCCCO[C@H](CN(C)Cc2ccc(C(F)(F)F)cc2)[C@H](C)CN([C@H](C)CO)C(=O)c2cc(N(C)C)ccc2O1` the “activity change, negative = inhibition” value was “inactive”. `CN(C)C(CNC(C(=O)Nc1ccc([N+](=O)[O-])cc1Br)c1ccccc1)c1ccccc1` (stereo unspecified) was tested, and the “activity change, negative = inhibition” value was “inactive”. `COc1ccc(N2CCN(C(=O)C3CCCN(S(=O)(=O)c4c(C)noc4C)C3)CC2)cc1` (stereo unspecified) was tested, and the “activity change, negative = inhibition” value was “inactive”. For `CCN(CC)c1ccc(CN2CCC(C(=O)NCc3ccc(C)cc3)CC2)cc1`, the “activity change, negative = inhibition” value was “inactive”. For `C#CCOCCOCCOCCNc1nc(N2CCN(C(=O)[C@H](CCCN=C(N)N)n3cc(C(N)[C@@H](C)CC)nn3)CC2)nc(N2CCN(C(=O)[C@H](CCCCN)n3cc([C@@H](N)CC(N)=O)nn3)CC2)n1` (stereo partly specified), the “activity change, negative = inhibition” value was “inactive”. For `Cc1c(C)n(Cc2ccc(Cl)cc2)c2ccc(C(=O)NCCCN3CCOCC3)cc12`, the “activity change, negative = inhibition” value was “inactive”. With `Cc1c(C)n(Cc2ccccc2)c2ccc(C(=O)OCCN(C)C)cc12` the “activity change, negative = inhibition” value was “inactive”. With `Cc1ccc(Nc2cc(C)nc3c(C)ccc([N+](=O)[O-])c23)cc1` the “activity change, negative = inhibition” value was “inactive”. In the case of `C[n+]1c2n(c3ccccc31)N=C(c1cc(C(C)(C)C)c(O)c(C(C)(C)C)c1)CS2`, the “activity change, negative = inhibition” value is reported as “inactive”. In the case of `CCN1CCN(c2ccc(N)c(C)c2)CC1`, the “activity change, negative = inhibition” value is reported as “inactive”. For `O=S(=O)(c1ccc(Cl)cc1)N1CCN(Cc2ccc(O)c3ncccc23)CC1`, the “activity change, negative = inhibition” value was “inactive”. `CCN(CC)CCSc1nc2ccccc2c(=S)n1-c1ccccc1` was tested, and the “activity change, negative = inhibition” value was “inactive”. With `CCC(=O)N(C)C[C@H]1Oc2cc(C#Cc3ccncc3)ccc2S(=O)(=O)N([C@@H](C)CO)C[C@@H]1C` the “activity change, negative = inhibition” value was “inactive”. With `C#CCOCCOCCOCCNc1nc(N2CCN(C(=O)[C@H](CCCCN)n3cc([C@@H](N)[C@H](C)CC)nn3)CC2)nc(N2CCN(C(=O)[C@H](CCC(=O)O)n3cc([C@@H](N)CCCCN)nn3)CC2)n1` the “activity change, negative = inhibition” value was “inactive”. With `CC(C)C[C@@H](C(=O)NC1CCN(Cc2ccccc2)CC1)N1C(=O)N2CCc3c([nH]c4ccccc34)[C@@]2(C)C1=O` the “activity change, negative = inhibition” value was “inactive”. With `C[C@@H]1ON(C)[C@H]2C[C@H]3c4[nH]c5ccc(-c6ccc7c(c6)OCO7)cc5c4CCN3C[C@@H]12` the “activity change, negative = inhibition” value was “inactive”. For `Cn1ccc2c(/C=C/c3ccc(F)cc3)cc3c(c21)C1CCC3C1` (stereo unspecified), the “activity change, negative = inhibition” value was “inactive”. With `CNC(=S)N1N=C(c2ccc(Br)cc2)CC1c1ccc(N(C)C)cc1` (stereo unspecified) the “activity change, negative = inhibition” value was “inactive”. In the case of `CN(C)c1ccc(C(CNC(=O)c2ccccc2)c2c[nH]c3ccccc23)cc1` (stereo unspecified), the “activity change, negative = inhibition” value is reported as “inactive”. With `CN1CCN(c2ccc(S(=O)(=O)N3CCCCC3)cc2NC(=O)/C=C/c2ccc(Cl)c([N+](=O)[O-])c2)CC1` the “activity change, negative = inhibition” value was “inactive”. `S=C(NN=C(c1ccccc1)c1ccccn1)N(Cc1ccccn1)Cc1ccccn1` was tested, and the “activity change, negative = inhibition” value was “inactive”. In the case of `Oc1ccccc1C=NCCCCCCN=Cc1ccccc1O`, the “activity change, negative = inhibition” value is reported as “inactive”. With `Cc1ccc(NC(=S)N(CCCN2CCCC2)Cc2cccn2Cc2ccc(Cl)cc2)cc1` the “activity change, negative = inhibition” value was “inactive”. For `CCOc1cc(N2CCOCC2)c(OCC)cc1NC(=O)c1ccc2ccccc2n1`, the “activity change, negative = inhibition” value was “inactive”. For `COc1ccc(N2CCN(CCCNC(=O)C(=O)c3c(C)n(C)c4ccccc34)CC2)cc1`, the “activity change, negative = inhibition” value was “inactive”. `CCn1c(C)c(C(C)=O)c(N2CCN(c3ccc(OC)cc3)CC2)nc1=S` was tested, and the “activity change, negative = inhibition” value was “inactive”. In the case of `COc1ccc(NC2CCCN(Cc3cccc4cnccc34)C2)cc1OC` (stereo unspecified), the “activity change, negative = inhibition” value is reported as “inactive”. In the case of `CN=c1scc(-c2ccccc2F)n1/N=C(\C)c1cccnc1`, the “activity change, negative = inhibition” value is reported as “inactive”. With `Cc1cc(N=Nc2ccc(Cl)cc2)cc(CN2CCOCC2)c1O` the “activity change, negative = inhibition” value was “inactive”. `CC(C)C1CC(CCNCc2ccc(N(C)C)cc2)(c2ccccc2)CCO1` (stereo unspecified) was tested, and the “activity change, negative = inhibition” value was “inactive”. In the case of `Cc1cc(C)cc(OCC(O)CN2CCC(CN3C(=O)c4cccc5cccc(c45)C3=O)CC2)c1` (stereo unspecified), the “activity change, negative = inhibition” value is reported as “inactive”. For `COc1ccc(N2CCN(C3CCCN(S(=O)(=O)c4ccc(C)cc4C)C3)CC2)cc1` (stereo unspecified), the “activity change, negative = inhibition” value was “inactive”. In the case of `CN=c1scc(-c2ccc(OC)cc2)n1/N=C(\C)c1cccnc1`, the “activity change, negative = inhibition” value is reported as “inactive”. With `O=C(N/N=C/c1sc(N2CCCCC2)nc1-c1cccs1)C1CC1` the “activity change, negative = inhibition” value was “inactive”. With `Nc1[nH]n(-c2ccccc2)c(=O)c1N=Nc1ccc2c(c1)OCCO2` the “activity change, negative = inhibition” value was “inactive”.
